This note sets out measurements from a melting point compilation (Tetko et al.; mined from patent text by program, amines drawn as free bases though some values may be those of a salt).

In turn, `Cc1ccc2c(c1)C(CCCCOS(C)(=O)=O)C(=O)N2` (centres undefined) showed a melting point of 89 to 90 °C.
In turn, `COc1ccc(Cl)c(Oc2c(NS(=O)(=O)c3ccc4c(c3)OCO4)ncnc2OCCO)c1` gave a melting point of 148 to 150 °C.
`CCCc1nnc(/C=C/c2cn(Cc3ccccc3)nc2OCc2ccc(OCc3nc(-c4ccco4)oc3C)c(OC)c2)o1` yielded a melting point of 146 to 147 °C.
Turning to `COc1ccc(/C=C(\C#N)c2cc(OC)c(OC)c(OC)c2)cc1[N+](=O)[O-]`, the melting point was 158 to 159 °C.
The molecule `CN(CC(=O)OCCCCNc1cccc2c1C(=O)c1ccccc1C2=O)C(=O)OC(C)(C)C` came in with a melting point of 90 °C.
For the molecule `CCN(CC)CCc1c(C)[nH]c(C=C2C(=O)[NH+]([O-])N=C2c2cnccn2)c1C` (centres undefined), the melting point amounted to 192 °C.
Molecule `Cc1cccc2c1Oc1ccccc1N2` displayed a melting point of 91 °C.
`CN1c2ccccc2CN(C(=O)c2ccc(C3CCCCC3)cc2)c2ccccc21` showed a melting point of 104 to 106 °C.
The same measure for `Cc1cccc(C(=O)Nc2ccc(S(N)(=O)=O)cc2)c1SSc1c(C)cccc1C(=O)Nc1ccc(S(N)(=O)=O)cc1`: 308 to 309 °C; for `CCOC(=O)c1ncc2[nH]c3ccc(-n4cccc4)cc3c2c1C`: 214 to 217 °C; for `COc1ccc2c(c1)CC(C)CC2=O` (centres undefined): 70.5 to 70.6 °C.
Take `Cn1nnc2cc(OC3SCC(O)C(O)C3O)ccc21` (centres undefined): the melting point came to 220 °C.
Regarding `O=Cc1c(Cl)ccc(C2OCCO2)c1Cl`, the melting point fell in the range of 96 to 98 °C.
`CCN(CC)C(=O)CCCOc1ccc(Oc2ccccc2)cc1`: the melting point is 73 to 74 °C.
The molecule `CC(CN(C)c1ccccc1)NCC(O)c1ccc(O)c(C(N)=O)c1` (centres undefined) yielded a melting point of 143 to 145 °C.
The same measure for `CC(C)(C)OC(=O)CON=C(C(=O)O)c1ccsc1`: 103 to 104 °C; for `O=C1N(Cc2ccccn2)c2cccc(-c3cncnc3)c2C12COc1cc3c(cc12)CCO3` (centres undefined): over 200 °C.
Turning to `N#Cc1cccc(CSCCNC(=O)c2c(Cl)cccc2Cl)c1`, the melting point was 123 to 125 °C.
`COC(=O)Nc1ccc(NC(=O)CN(C)C)c(N)c1`: the melting point lay within 140 to 142 °C.
`O=C1C(=O)c2ccccc2C2=C1SCC1(CCN(CCc3ccccc3)CC1)O2` showed a melting point of 117 to 118 °C.
On to `CCCCCCCCCCCCCCOc1ccc(C(=O)Oc2ccc(-c3ncc(C(=O)O[C@@H](C)CCCCCC)cn3)cc2)cc1`, for which the melting point was determined as 85.4 °C.
Molecule `CC1(C)CC=C(S(=O)(=O)c2ccccc2)CC1` registered a melting point of 51 to 53 °C.
Molecule `O=C(NCCCSc1ccncc1)c1cccnc1` had a melting point of 90 to 91 °C.
Turning to `CC(=O)OCC1OC(OCC(=O)c2cc(OCc3ccccc3)c(OCc3ccccc3)c(OCc3ccccc3)c2)C(OC(C)=O)C(OC(C)=O)C1OC(C)=O` (centres undefined), the melting point lay within 156 to 158 °C.
The molecule `C=CCOc1ccc(CC(=O)NCCCC)cc1` returned a melting point of 87 to 89 °C.
Molecule `CC(C)c1cc(S(=O)(=O)c2c(Br)cc(CC(N)C(=O)O)cc2Br)ccc1O` (centres undefined) displayed a melting point of 210 to 217 °C.
The molecule `CC(=O)Nc1ccn2nc(-c3ccccc3)c(-c3ccc(=O)n(C(C)C)n3)c2c1` registered a melting point of 221 to 222 °C.
The molecule `COC(=O)c1cccc(NC(N)=S)c1` returned a melting point of 171 to 172 °C.
In turn, `CCCCCCCCCCCCN(c1nc(Cl)nc(Cl)n1)c1nc(Cl)nc(Cl)n1` had a melting point of 50 to 53 °C.
Take `COc1ccc(CNc2nn(CC(=O)OC(C)(C)C)c(=O)c3ccc(C#N)cc23)cc1Cl`: the melting point fell in the range of 174 to 175 °C.
Regarding `O=C(c1ccccc1)c1ccc(NC(=O)C(O)(C(F)(F)F)C(F)(F)F)cc1`, the melting point was in the range of 143 to 146 °C.
Regarding `CCOc1cc2c(cc1OC)Cc1c([nH]cnc1=O)N2`, the melting point lay in the range of 318 to 320 °C.
`O=C(NCCCn1ccnc1)Nc1cccc(C(F)(F)F)c1` registered a melting point of 105 to 108 °C.
`Clc1nnc(Cl)c2cc3ccccc3cc12` registered a melting point of 224 to 228 °C.
For the molecule `C=Cc1cc(Cl)cc2c1OC(C(F)(F)F)C(C(=O)O)=C2` (centres undefined), the melting point is 183 to 186 °C.
`COC1=CC(=O)c2c(c(CO)cn2C)C1=O` yielded a melting point of 182 to 184 °C.
Take `CC(C)[C@H]1CC[C@H](C(=O)COS(=O)(=O)c2ccccc2)CC1`: the melting point was in the range of 48 to 49 °C.
In the case of `Cc1c(-c2ccccc2)nn(N)c1OCCN1CCCC1`, the melting point was determined as 109 °C.
`CCCCNC(=O)[C@@H](C[C@H](O)[C@H](CC1CCCCC1)NC(=O)OC(C)(C)C)C(C)C` gave a melting point of 115 to 118 °C.
As for `COC(=O)c1nc(-c2cc([N+](=O)[O-])c(Cl)cc2F)cc(N)c1Cl`, the figure is 161 to 163 °C; as for `COC(=O)C(=O)CC(=O)c1ccc(C2CCCCC2)cc1`, 96 to 98 °C; as for `CC(C=Cc1c(C)cc(C)c(C)c1C)=CC=CC(C)=CC(=O)O`, 201 to 202 °C.
As for `CCCCCCCOc1ccc(C(=O)O)c(C)c1`, the figure is 74 to 76 °C.
Molecule `O=C(O)COc1cc2c(c(Cl)c1Cl)C(O)C1(CCCC1)C2` (centres undefined) registered a melting point of 135 °C.
`COc1ccc2c(c1)CCC(CN1CCC3(CC1)C(=O)NCN3c1ccccc1)=C2` came in with a melting point of 182 to 193 °C.
With `NCc1ccc(CN2CCN(c3ncccn3)CC2)cc1`, the melting point lay within 70 to 72 °C.
The molecule `O=C1OC(=O)c2cc3c(ccc4ccccc43)cc21` registered a melting point of 278 °C.
On to `COC(=O)c1cc(-n2c(Cl)nc(C(F)(F)F)cc2=O)c(F)cc1Cl`, for which the melting point lay in the range of 89 to 91 °C.
For the molecule `COc1ccc(OS(=O)(=O)c2ccc(C)cc2)c(C(C)C)c1`, the melting point came out at 85.1 °C.
For the molecule `Cc1cccc(C)c1N(CCl)C(=O)c1ccccc1`, the melting point came out at 133 °C.
The same measure for `CCNc1c([N+](=O)[O-])cc(C(C)(C)C)cc1[N+](=O)[O-]`: 70 to 73 °C; for `CC(C)(C)OC(=O)N1CCC(NC(=O)c2ccc(-n3cccn3)cc2)C1` (centres undefined): 263 to 264 °C.
In the case of `CC(C)N(C(=O)c1ccc(F)cc1)C1CCN(Cc2ccccc2)CC1`, the melting point was 98 °C.
The same measure for `CNC(=S)n1nc(Sc2ccc(C#N)cc2)nc1N`: 200 to 203 °C; for `COC(=O)c1ccc(-c2ccc(Br)c3nsnc23)cc1`: 188 to 192 °C; for `COc1ccc(-c2ccc(OC(C)CC(C)Oc3ccc(-c4ccc(OC)cc4)cc3)cc2)cc1` (centres undefined): 164 °C.
`NC(=O)OCc1cc2c(Oc3ccc(Cl)cc3)cncc2s1` registered a melting point of 113 to 115 °C.
`Cc1c(Br)cc(NC(=O)c2cccc(CSc3cnccn3)c2)cc1Br` displayed a melting point of 119 to 127 °C.
In the case of `Cn1ncc2c1-c1c(Oc3ccc(O)cc3)sc(C(N)=O)c1CC2`, the melting point lay within 137 to 139 °C.
`COc1ccc2ncnc(N3CCCc4ccccc43)c2c1` had a melting point of 98 °C.
`O=S(=O)(Cc1ccc(Br)cc1)c1nc(-c2ccncc2)ns1` displayed a melting point of 173 °C.
Molecule `CCC(C)OC1OC(C(O)N(CC(C)C)C(=O)N(CCCl)N=O)C(O)C1O` (centres undefined) returned a melting point of 80 to 82 °C.
For `CCOc1cc(OCCCc2cn(-c3ccc(C(F)(F)F)cn3)nc2OCc2ccccc2)ccc1CCC(=O)O`, the melting point was 106 to 107 °C.
Molecule `COC(=O)c1nc(CN(C)C)n(-c2ccc(Cl)cc2C(=O)c2ccccc2Cl)n1` came in with a melting point of 131 to 134 °C.
In turn, `COc1ccc(OC)c(S(=O)(=O)n2c(CCCC(=O)O)cc3cc(Cl)ccc32)c1` showed a melting point of 201 to 209 °C.
As for `CCOC(=O)CCc1ccc(OCc2nc(-c3ccco3)oc2C)c(OC)c1`, the figure is 88 to 89 °C.
The same measure for `CC(C)(C)OC(=O)N[C@@H](CCl)[C@H](O)CCl`: 142 to 145 °C; for `N#COc1ccc(OC#N)cc1`: 117 to 119 °C.
For the molecule `CC1(C)C(=O)N(c2ccc(C#N)c(C(F)(F)F)c2)C(=O)N1CCCCOCc1ccccc1`, the melting point lay in the range of 75 to 76 °C.
`CS(=O)(=O)C(=C1CN(C(c2ccc(Cl)cc2)c2ccc(Cl)cc2)C1)c1cc(F)cc(F)c1` registered a melting point of 200 °C.
With `CCCCCCCCCCCCOc1c(OC)cc(N)c2nccc(C)c12`, the melting point was 53 to 55 °C.
As for `c1ccc(CNc2nnc(Cc3ccncc3)c3ccccc23)cc1`, the figure is 137 to 138 °C; as for `CCOC(=O)c1cc(Oc2ccccc2)ccc1OC`, 52 °C; as for `CCOc1cc2c(cc1OC)C(c1ccc(C(=O)N(C(C)C)C(C)C)cc1)=NC1CC[N+](C)([O-])CC21` (centres undefined), 195 to 198 °C.
The same measure for `CCOC=C1C=C(C(C)(C)C)C(=O)C(C(C)(C)C)=C1`: 114 to 117 °C; for `O=Cc1cccc(C=O)c1O`: 122 to 125 °C.
The molecule `Nc1cccc(C(F)(F)F)c1CCl` returned a melting point of 155 to 161 °C.
`CC1CCCC(C)C1NSc1nc2ccccc2s1` (centres undefined) displayed a melting point of 75 to 93 °C.
In turn, `CN1CCN2C(=O)Nc3ccc(Cl)cc3C12c1ccccc1` (centres undefined) gave a melting point of 270 to 271 °C.
In turn, `C[C@H](NC(=O)c1c[nH]c2ncc(-c3cn(-c4cccc(C(F)(F)F)c4)cn3)nc12)C(C)(C)C` gave a melting point of 332 to 333 °C.
As for `O=c1cc(N2CCCCC2)oc2c1ccc1ccccc12`, the melting point was 205 to 207 °C.
`CN1CCN(c2ncnc3oc(-c4ccccc4)c(-c4ccc(F)cc4)c23)CC1` had a melting point of 143 to 144 °C.
Molecule `CC(C)CCCCCCCC=CC1CC(=O)N(NC(=O)CCc2cc(C(C)(C)C)c(O)c(C(C)(C)C)c2)C1=O` (centres undefined) had a melting point of 62 to 68 °C.
As for `CC(C)(C)c1ccc2oc(-c3ccc(O)cc3)cc2c1`, the figure is 172 to 174 °C.
In turn, `O=C(NC(=O)c1c(Cl)cccc1Cl)Nc1ccc(C(F)(F)F)cc1` gave a melting point of 200 °C.
Regarding `CCOC(=O)C1=C2CC=CC=C2N(C(=O)OCC)CCC1`, the melting point worked out at 60 °C.
`CS(=O)(=O)c1ccc(-c2nn(Cc3cccnc3)c(=O)cc2-c2ccc(Cl)cc2)cc1` displayed a melting point of 248 °C.
As to `Nc1ccc2[nH]c3ccc([N+](=O)[O-])cc3c(=O)c2c1`, the melting point was over 350 °C.
`CC(=O)c1ccc(OCCNC(=O)OCc2ccccc2)cc1` yielded a melting point of 80 to 81 °C.
